Usually solubility stands for the dissolved amount per volume that the medium holds.

For series [1], the target named is T1, hGLP1R (Homo sapiens, UniProt P43220).
T1 construct: expressed in transfected cells; host or cells: HEK-293 CRE-luciferase reporter cells
The series is described as follows: hGLP1R CreLuc assay in 0.5% and 100% plasma (HEK-293 CRE-luciferase reporter cells). It counts as cell-based. The note with it: HEK-293 reporter cells. (Reporter assays use an easily measured gene product as a stand-in for the process of interest.)

Series [2] has as its target T2, hGIPR (Homo sapiens, UniProt P48546).
T2 construct: expressed in transfected cells; host or cells: CHO CRE-luciferase reporter cells
T2 sequence (P48546 22-466): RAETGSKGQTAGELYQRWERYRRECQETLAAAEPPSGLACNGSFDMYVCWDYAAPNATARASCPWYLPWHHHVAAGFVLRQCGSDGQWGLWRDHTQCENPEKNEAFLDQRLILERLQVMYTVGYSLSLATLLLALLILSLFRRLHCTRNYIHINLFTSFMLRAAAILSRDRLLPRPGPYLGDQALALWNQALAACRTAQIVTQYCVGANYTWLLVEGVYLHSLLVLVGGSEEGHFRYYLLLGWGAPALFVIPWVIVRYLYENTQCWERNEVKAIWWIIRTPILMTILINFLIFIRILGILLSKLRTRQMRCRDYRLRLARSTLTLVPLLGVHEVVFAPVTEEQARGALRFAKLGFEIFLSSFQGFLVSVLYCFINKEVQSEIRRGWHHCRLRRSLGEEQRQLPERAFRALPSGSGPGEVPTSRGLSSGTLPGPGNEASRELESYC
The series is described as follows: hGIPR CreLuc assay in 0.5% and 100% plasma (CHO CRE-luciferase reporter cells). Format: cell-based.

Series [3] deals with T3, hNPY2R (Homo sapiens, UniProt P49146).
T3 construct: expressed in transfected cells; host or cells: HEK-293 CRE-luciferase reporter cells
T3 sequence (P49146 1-381): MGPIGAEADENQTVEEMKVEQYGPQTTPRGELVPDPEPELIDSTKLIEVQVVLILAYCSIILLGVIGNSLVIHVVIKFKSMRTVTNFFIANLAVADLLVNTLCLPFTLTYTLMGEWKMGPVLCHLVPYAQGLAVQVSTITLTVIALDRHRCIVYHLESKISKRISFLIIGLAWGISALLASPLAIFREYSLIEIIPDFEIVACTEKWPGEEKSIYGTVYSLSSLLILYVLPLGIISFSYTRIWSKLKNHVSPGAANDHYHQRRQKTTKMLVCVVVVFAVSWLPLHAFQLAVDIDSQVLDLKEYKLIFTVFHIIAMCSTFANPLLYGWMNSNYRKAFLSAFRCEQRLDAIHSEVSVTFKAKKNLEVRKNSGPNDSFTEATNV
The series is described as follows: hNPY2R CreLuc assay in 0.5% and 100% plasma (HEK-293 CRE-luciferase reporter cells). The following applies: HEK-293 reporter cells. It counts as cell-based.

Series [4] in a line: Solubility in 0.1 M phosphate buffer at pH 7. It counts as physicochemical. The following applies: 0.1 M phosphate buffer at pH 7, 10 mg/mL final peptide concentration, shaking 2 hours at room temperature, peptides as TFA-salts; measured sample pH 6.5-7.0.
Where [5] appears, read: 0.5% human plasma, read-out: hGLP1R 0.5% hP.
[6] abbreviates: 100% human plasma, read-out: hNPY2R 100% hP.

pEC50: −log10 of the molar value. Like-named read-outs stand apart in the source and are kept apart here.

T1 sequence (P43220 24-463): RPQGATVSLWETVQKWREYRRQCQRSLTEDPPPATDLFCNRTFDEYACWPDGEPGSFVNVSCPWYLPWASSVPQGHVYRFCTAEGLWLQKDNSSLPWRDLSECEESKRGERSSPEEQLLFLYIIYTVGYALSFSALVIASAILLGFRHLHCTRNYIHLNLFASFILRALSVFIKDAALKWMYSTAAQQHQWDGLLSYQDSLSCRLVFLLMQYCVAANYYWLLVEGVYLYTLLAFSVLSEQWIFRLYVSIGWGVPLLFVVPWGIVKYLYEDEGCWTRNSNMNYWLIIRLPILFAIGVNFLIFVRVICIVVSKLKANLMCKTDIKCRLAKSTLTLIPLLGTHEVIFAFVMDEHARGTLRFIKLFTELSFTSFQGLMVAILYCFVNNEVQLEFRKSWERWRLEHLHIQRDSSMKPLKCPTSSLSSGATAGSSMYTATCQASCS

As to `CC[C@H](C)[C@H](NC(=O)[C@H](CC(C)C)NC(=O)[C@H](Cc1c[nH]cn1)NC(=O)[C@H](CCCNC(=N)N)NC(=O)[C@@H](NC(=O)[C@H](Cc1ccccc1)NC(=O)[C@H](CCC(=O)O)NC(=O)C(C)(C)NC(=O)[C@H](CCC(N)=O)NC(=O)[C@H](C)NC(=O)[C@H](CCC(N)=O)NC(=O)[C@H](CCCCN)NC(=O)[C@H](CCC(=O)O)NC(=O)[C@H](CC(C)C)NC(=O)C(C)(C)NC(=O)[C@@H](NC(=O)[C@H](CO)NC(=O)[C@H](Cc1ccc(O)cc1)NC(=O)[C@H](CC(=O)O)NC(=O)[C@H](CO)NC(=O)[C@@H](NC(=O)[C@H](Cc1ccccc1)NC(=O)[C@@H](NC(=O)CNC(=O)[C@H](CCC(=O)O)NC(=O)C(C)(C)NC(=O)[C@@H](N)Cc1ccc(O)cc1)[C@@H](C)O)[C@@H](C)O)[C@@H](C)CC)C(C)C)C(=O)N[C@@H](CC(N)=O)C(=O)N[C@@H](CCCCNC(=O)COCCOCCNC(=O)CC[C@H](NC(=O)CC[C@H](NC(=O)CC[C@H](NC(=O)CC[C@H](NC(=O)CC[C@H](NC(=O)CCCCCCCCCCCCCCCCC(=O)O)C(=O)O)C(=O)O)C(=O)O)C(=O)O)C(=O)O)C(=O)NC(C)(C)C(=O)N[C@H](C(=O)N[C@@H](CCCNC(=N)N)C(=O)N[C@@H](CCC(N)=O)C(=O)N[C@@H](CCCNC(=N)N)C(=O)N[C@@H](Cc1ccc(O)cc1)C(N)=O)[C@@H](C)O` [Compound 8, Y-Aib-E-G-T-F-T-S-D-Y-S-I-Aib-L-E-K-Q-A-Q-Aib-E-F-V-R-H-L-I-N-K(1,3)-Aib-T-R-Q-R-Y-NH2.C18DA-gGlu-gGlu-gGlu-gGlu-gGlu-OEG(1,2)], the pEC50 was 9.52 in series [1] (setting [5]); 9.52 in series [2] (0.5% human plasma, read-out: hGIPR 0.5% hP); 7.85 in series [2] (100% human plasma, read-out: hGIPR 100% hP); 6.32 in series [3] (setting [6]). Moreover, in series [4], the solubility at 2 h was determined as 4.9 mg/mL.

Regarding `CC[C@H](C)[C@H](NC(=O)[C@H](CC(C)C)NC(=O)[C@H](Cc1c[nH]cn1)NC(=O)[C@H](CCCNC(=N)N)NC(=O)[C@H](CC(C)C)NC(=O)[C@H](Cc1ccccc1)NC(=O)[C@H](C)NC(=O)C(C)(C)NC(=O)[C@H](CCC(N)=O)NC(=O)[C@H](C)NC(=O)[C@H](CCC(N)=O)NC(=O)[C@H](CCCCN)NC(=O)[C@H](CCC(=O)O)NC(=O)[C@H](CC(C)C)NC(=O)C(C)(C)NC(=O)[C@@H](NC(=O)[C@H](CO)NC(=O)[C@H](Cc1ccc(O)cc1)NC(=O)[C@H](CC(=O)O)NC(=O)[C@H](CO)NC(=O)[C@@H](NC(=O)[C@H](Cc1ccccc1)NC(=O)[C@@H](NC(=O)CNC(=O)[C@H](CCC(=O)O)NC(=O)C(C)(C)NC(=O)[C@@H](N)Cc1ccc(O)cc1)[C@@H](C)O)[C@@H](C)O)[C@@H](C)CC)C(=O)N[C@@H](CC(N)=O)C(=O)N[C@@H](CCCCNC(=O)[C@@H](N)CCCCNC(=O)CC[C@H](NC(=O)CC[C@H](NC(=O)CC[C@H](NC(=O)CC[C@H](NC(=O)CC[C@H](NC(=O)CC[C@H](NC(=O)CCCCCCCCCCCCCCCCC(=O)O)C(=O)O)C(=O)O)C(=O)O)C(=O)O)C(=O)O)C(=O)O)C(=O)NC(C)(C)C(=O)N[C@H](C(=O)N[C@@H](CCCNC(=N)N)C(=O)N[C@@H](CCC(N)=O)C(=O)N[C@@H](CCCNC(=N)N)C(=O)N[C@@H](Cc1ccc(O)cc1)C(N)=O)[C@@H](C)O` [Compound 37, Y-Aib-E-G-T-F-T-S-D-Y-S-I-Aib-L-E-K-Q-A-Q-Aib-A-F-L-R-H-L-I-N-K(1,3)-Aib-T-R-Q-R-Y-NH2.C18DA-gGlu-gGlu-gGlu-gGlu-gGlu-gGlu-eLys(1,2)], the results for the pEC50 in series [1] (setting [5]) and in series [3] (setting [6]) were 8.24 and 7.38, respectively. In addition, the solubility at 2 h in series [4] came out at 9 mg/mL.

Regarding `CC[C@H](C)[C@H](NC(=O)[C@H](CC(C)C)NC(=O)[C@H](Cc1c[nH]cn1)NC(=O)[C@H](CCCNC(=N)N)NC(=O)[C@@H](NC(=O)[C@H](Cc1ccccc1)NC(=O)[C@H](C)NC(=O)C(C)(C)NC(=O)[C@H](CCC(N)=O)NC(=O)[C@H](C)NC(=O)[C@H](CCC(N)=O)NC(=O)[C@H](CCCCN)NC(=O)[C@H](CCC(=O)O)NC(=O)[C@H](CC(C)C)NC(=O)C(C)(C)NC(=O)[C@@H](NC(=O)[C@H](CO)NC(=O)[C@H](Cc1ccc(O)cc1)NC(=O)[C@H](CC(=O)O)NC(=O)[C@H](CO)NC(=O)[C@@H](NC(=O)[C@H](Cc1ccccc1)NC(=O)[C@H](C)NC(=O)CNC(=O)[C@H](CCC(=O)O)NC(=O)C(C)(C)NC(=O)[C@@H](N)Cc1ccc(O)cc1)[C@@H](C)O)[C@@H](C)CC)C(C)C)C(=O)N[C@@H](CC(N)=O)C(=O)N[C@@H](CCCCNC(=O)[C@@H](N)CCCCNC(=O)CC[C@H](NC(=O)CC[C@H](NC(=O)CC[C@H](NC(=O)CC[C@H](NC(=O)CC[C@H](NC(=O)CC[C@H](NC(=O)CCCCCCCCCCCCCCCCC(=O)O)C(=O)O)C(=O)O)C(=O)O)C(=O)O)C(=O)O)C(=O)O)C(=O)NC(C)(C)C(=O)N[C@H](C(=O)N[C@@H](CCCNC(=N)N)C(=O)N[C@@H](CCC(N)=O)C(=O)N[C@@H](CCCNC(=N)N)C(=O)N[C@@H](Cc1ccc(O)cc1)C(N)=O)[C@@H](C)O` [Compound 85, Y-Aib-E-G-A-F-T-S-D-Y-S-I-Aib-L-E-K-Q-A-Q-Aib-A-F-V-R-H-L-I-N-K(1,3)-Aib-T-R-Q-R-Y-NH2.C18DA-gGlu-gGlu-gGlu-gGlu-gGlu-gGlu-eLys(1,2)], the pEC50 in series [1] (100% human plasma, read-out: hGLP1R 100% hP) was 7.84; in series [3] (setting [6]) it was 7.79. Also, the solubility at 2 h in series [4] was 9.4 mg/mL.

With `CC[C@H](C)[C@H](NC(=O)[C@H](CC(C)C)NC(=O)[C@H](Cc1c[nH]cn1)NC(=O)[C@H](CCCNC(=N)N)NC(=O)[C@@H](NC(=O)[C@H](Cc1ccccc1)NC(=O)[C@H](C)NC(=O)C(C)(C)NC(=O)[C@H](CCC(=O)O)NC(=O)[C@H](C)NC(=O)[C@H](CCC(N)=O)NC(=O)[C@H](CCCCN)NC(=O)[C@H](CCC(=O)O)NC(=O)[C@H](CC(C)C)NC(=O)C(C)(C)NC(=O)[C@@H](NC(=O)[C@H](CO)NC(=O)[C@H](Cc1ccc(O)cc1)NC(=O)[C@H](CC(=O)O)NC(=O)[C@H](CO)NC(=O)[C@@H](NC(=O)[C@H](Cc1ccccc1)NC(=O)[C@@H](NC(=O)CNC(=O)[C@H](CCC(=O)O)NC(=O)C(C)(C)NC(=O)[C@@H](N)Cc1ccc(O)cc1)[C@@H](C)O)[C@@H](C)O)[C@@H](C)CC)C(C)C)C(=O)N[C@@H](CC(N)=O)C(=O)N[C@@H](CCCCNC(=O)[C@@H](N)CCCCNC(=O)CC[C@H](NC(=O)CC[C@H](NC(=O)CC[C@H](NC(=O)CC[C@H](NC(=O)CC[C@H](NC(=O)CC[C@H](NC(=O)CCCCCCCCCCCCCCCCCCC(=O)O)C(=O)O)C(=O)O)C(=O)O)C(=O)O)C(=O)O)C(=O)O)C(=O)NC(C)(C)C(=O)N[C@H](C(=O)N[C@@H](CCCNC(=N)N)C(=O)N[C@@H](CCC(N)=O)C(=O)N[C@@H](CCCNC(=N)N)C(=O)N[C@@H](Cc1ccc(O)cc1)C(N)=O)[C@@H](C)O` [Compound 104, Y-Aib-E-G-T-F-T-S-D-Y-S-I-Aib-L-E-K-Q-A-E-Aib-A-F-V-R-H-L-I-N-K(1,3)-Aib-T-R-Q-R-Y-NH2.C20DA-gGlu-gGlu-gGlu-gGlu-gGlu-gGlu-eLys(1,2)], the pEC50 was 8.70 in series [1] (setting [5]) and 7.76 in series [3] (0.5% human plasma, read-out: hNPY2R 0.5% hP). For the same molecule, the solubility at 2 h in series [4] is 9.4 mg/mL.

Values taken from patent publication US20250382344A1, “Soluble GLP1/GIP/NPY2 Receptor Triple Agonists” (Boehringer Ingelheim International GmH, priority 2024, published 2025).
